Among the data in ChEMBL document CHEMBL4043241, “Development and evaluation of 4-(pyrrolidin-3-yl)benzonitrile derivatives as inhibitors of lysine specific demethylase 1” (Bioorg Med Chem Lett, 2017) are IC50 and Kd values, retold here.

A value given as a limit tells only on which side of the number the result lay.

Usually IC50 stands for the point on the concentration scale where inhibition reaches its midpoint. As usually defined, the Kd is the concentration at which binding is half-saturated.

Assay [1] has as its target Voltage-gated inwardly rectifying potassium channel KCNH2 (Homo sapiens, UniProt Q12809). Description: Inhibition of human ERG expressed in CHO cells by Ionworks electrophysiology method. Format: cell-based. (In general: In patch-clamp work, channel activity is measured electrically.)
For assay [2], the target named is T1, Lysine-specific histone demethylase 1A (Homo sapiens, UniProt O60341).
Description: Inhibition of recombinant human N-terminal truncated LSD1 (151 to 852 residues) expressed in Escherichia coli using histone H3(1-21)K4(Me1) biotin peptide as substrate measured after 30 mins by TR-FRET assay
The target of assay [3] is T1, Lysine-specific histone demethylase 1A. Description: Binding affinity to LSD1 (unknown origin) by SPR analysis. Background: SPR reads the build-up and loss of mass on a sensor chip optically.
Assay [4] deals with T2, Amine oxidase [flavin-containing] B (Homo sapiens, UniProt P27338).
T2 sequence (P27338 whole entry): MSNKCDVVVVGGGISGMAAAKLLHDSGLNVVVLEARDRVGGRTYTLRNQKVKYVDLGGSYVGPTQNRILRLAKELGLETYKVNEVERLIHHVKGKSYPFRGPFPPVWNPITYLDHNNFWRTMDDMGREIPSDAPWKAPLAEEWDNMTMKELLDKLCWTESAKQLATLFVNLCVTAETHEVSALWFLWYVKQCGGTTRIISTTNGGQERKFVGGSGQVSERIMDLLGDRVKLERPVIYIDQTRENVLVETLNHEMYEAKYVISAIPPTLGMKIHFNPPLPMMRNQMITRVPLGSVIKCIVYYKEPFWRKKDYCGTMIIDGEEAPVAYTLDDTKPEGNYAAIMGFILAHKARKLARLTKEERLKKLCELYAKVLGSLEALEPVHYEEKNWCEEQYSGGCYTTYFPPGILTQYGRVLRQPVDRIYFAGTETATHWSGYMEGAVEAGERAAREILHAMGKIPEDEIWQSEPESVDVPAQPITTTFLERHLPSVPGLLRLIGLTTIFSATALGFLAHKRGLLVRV
Description: Inhibition of recombinant human MAO-B expressed in supersomes using kynuramine as substrate by LC-MS/MS analysis.

The target in assay [5] is T3, Amine oxidase [flavin-containing] A (Homo sapiens, UniProt P21397).
T3 sequence (P21397 whole entry): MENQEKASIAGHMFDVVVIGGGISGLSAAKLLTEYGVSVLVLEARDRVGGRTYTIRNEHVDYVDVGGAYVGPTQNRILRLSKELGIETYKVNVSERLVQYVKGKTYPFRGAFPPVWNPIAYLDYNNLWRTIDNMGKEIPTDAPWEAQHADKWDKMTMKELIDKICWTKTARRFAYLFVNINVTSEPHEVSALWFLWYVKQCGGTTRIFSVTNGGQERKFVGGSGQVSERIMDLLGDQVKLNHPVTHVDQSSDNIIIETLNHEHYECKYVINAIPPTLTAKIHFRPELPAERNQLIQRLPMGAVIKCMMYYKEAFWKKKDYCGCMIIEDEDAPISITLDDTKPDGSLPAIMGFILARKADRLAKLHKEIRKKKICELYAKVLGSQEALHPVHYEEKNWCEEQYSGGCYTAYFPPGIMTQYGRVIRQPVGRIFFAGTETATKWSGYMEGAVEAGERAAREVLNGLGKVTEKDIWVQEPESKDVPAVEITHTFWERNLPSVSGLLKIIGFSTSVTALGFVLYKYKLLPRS
Description: Inhibition of recombinant human MAO-A expressed in supersomes using kynuramine as substrate by LC-MS/MS analysis.

Voltage-gated inwardly rectifying potassium channel KCNH2, sequence (Q12809 whole entry): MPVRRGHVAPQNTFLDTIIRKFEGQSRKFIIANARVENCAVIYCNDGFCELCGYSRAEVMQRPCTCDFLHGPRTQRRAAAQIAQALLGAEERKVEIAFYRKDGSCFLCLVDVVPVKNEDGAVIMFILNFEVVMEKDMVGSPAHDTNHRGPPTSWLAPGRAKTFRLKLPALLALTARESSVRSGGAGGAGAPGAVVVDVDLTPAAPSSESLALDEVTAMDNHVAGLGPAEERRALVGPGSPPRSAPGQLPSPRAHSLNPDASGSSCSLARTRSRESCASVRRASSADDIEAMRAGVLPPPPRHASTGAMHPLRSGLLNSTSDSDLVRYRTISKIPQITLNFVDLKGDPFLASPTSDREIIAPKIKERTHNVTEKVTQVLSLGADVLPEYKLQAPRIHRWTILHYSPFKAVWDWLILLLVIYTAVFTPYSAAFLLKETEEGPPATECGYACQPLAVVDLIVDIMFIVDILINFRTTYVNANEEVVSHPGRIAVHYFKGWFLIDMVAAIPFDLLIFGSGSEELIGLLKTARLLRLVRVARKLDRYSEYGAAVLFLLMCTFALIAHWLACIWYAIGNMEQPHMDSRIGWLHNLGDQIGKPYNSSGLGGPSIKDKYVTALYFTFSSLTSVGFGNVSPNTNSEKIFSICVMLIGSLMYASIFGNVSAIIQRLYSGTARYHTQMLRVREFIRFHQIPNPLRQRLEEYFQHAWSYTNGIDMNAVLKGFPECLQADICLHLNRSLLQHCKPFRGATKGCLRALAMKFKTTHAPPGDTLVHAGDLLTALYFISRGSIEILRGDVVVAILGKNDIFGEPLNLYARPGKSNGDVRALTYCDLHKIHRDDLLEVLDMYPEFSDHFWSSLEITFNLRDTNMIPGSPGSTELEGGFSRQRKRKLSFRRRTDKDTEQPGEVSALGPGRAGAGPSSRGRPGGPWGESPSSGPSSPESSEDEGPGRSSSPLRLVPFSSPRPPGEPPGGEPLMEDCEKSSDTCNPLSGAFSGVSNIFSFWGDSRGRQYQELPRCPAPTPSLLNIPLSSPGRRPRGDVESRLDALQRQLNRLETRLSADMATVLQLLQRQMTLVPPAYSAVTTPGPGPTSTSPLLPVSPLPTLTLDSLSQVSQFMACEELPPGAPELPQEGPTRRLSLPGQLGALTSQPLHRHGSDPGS

For the compound `Cc1ccc(-c2ncc(OC[C@@H]3CCNC3)cc2-c2ccc(C#N)cc2)cc1`, the concentration for half-maximal inhibition (IC50) in assay [1] stood at 3.2 µM; in assay [2], 0.041 µM. Also, the affinity in assay [3], expressed as Kd, was 0.008 µM.

`Cc1ccc([C@@H]2CN(C(=O)[C@H]3CC[C@H](CN)CC3)C[C@H]2c2ccc(C#N)cc2)cc1`: the figures for the IC50 in assay [4], in assay [1] and in assay [5] were more than 25 µM, 12.1 µM and more than 25 µM, respectively.
